From patent US9073821B2, “Hydroxamic acid derivative” (priority 2010, dated 2015) come the findings set out here.

In brackets after ≈: the same amount, converted by molar mass. Like-named read-outs stand apart in the source and are kept apart here. Bounds are passed on as bounds.

Assay [1] concerns Pseudomonas aeruginosa strain TS88 (clinical isolate). Briefly: Antimicrobial activity, MIC by broth microdilution. The class given is cell-based. As to conditions: Table 1, 35° C., 18 hours, read-out: MIC Pseudomonas aeruginosa TS88 strain. An excerpt:
Test 3: Evaluation of Antimicrobial Activity For minimum inhibitory concentration (MIC) measurement, the following broth microdilution method was applied as adapted from the standard procedure recommended by the CLSI (Clinical and Laboratory Standards Institute). The bacteria used were Pseudomonas aeruginosa strain TS88 (clinical isolate), E. coli strain ATCC25922, and Klebsiella pneumoniae strain ATCC13883. After culture overnight on a heart infusion agar medium, the cells of a test bacterium were scraped off and suspended to give a turbidity of level 0.5 on the McFarland scale; the suspension was then diluted 10 fold to prepare an inoculum solution. A 0.005 mL aliquot of the inoculum solution was inoculated in a cation-adjusted Mueller-Hinton broth medium containing a test compound and cultured at 35° C. for 18 hours. A minimum drug concentration at which no cell growth was visible to the naked eye was designated as MIC.
For orientation: In broth dilution the organism is exposed to a series of concentrations in liquid medium.

Assay [2] has as its target Pseudomonas aeruginosa LpxC enzyme (Pseudomonas aeruginosa (strain ATCC 15692 / DSM 22644 / CIP 104116 / JCM 14847 / LMG 12228 / 1C / PRS 101 / PAO1), UniProt P47205). The assay can be described thus: biochemical. In kind it is biochemical.
The mark [3] stands for this setting: Table 1, read-out: Pseudomonas aeruginosa LpxC IC50.
Where [4] appears, read: inhibitory activity on Pseudomonas aeruginosa LpxC enzyme, class symbols A/B/C, read-out: Enzyme inhibitory activity.

Consider `CNC(=O)C(C(=O)NO)N(C)C(=O)c1ccc(-c2ccc(N(C)C)cc2)cc1` (stereo not shown) [Compound 43, 2-[{[4′-(dimethylamino)biphenyl-4-yl]carbonyl}(methyl)amino]-N-hydroxy-N′-methylpropanediamide], for which the MIC (as a rule, the lowest concentration found to suppress growth) in assay [1] stood at 1 µg/mL (≈ 2.6 µM). Besides, the IC50 in assay [2] (setting [3]) stood at 7.2 nM.

For the molecule `CNC(=O)C(C(=O)NO)N(C)C(=O)c1ccc(-c2ccccc2)c(F)c1` (stereo not shown) [Compound 61, 2-{[(2-fluorobiphenyl-4-yl)carbonyl](methyl)amino}-N-hydroxy-N′-methylpropanediamide], the MIC in assay [1] worked out at 2 µg/mL (≈ 5.57 µM). Besides, the IC50 in assay [2] (setting [3]) turned out to be 9.2 nM.

As for `CNC(=O)C(C(=O)NO)N(C)C(=O)c1ccc(C#Cc2ccccc2)cc1` (stereo not shown) [Compound 218, N-hydroxy-N′-methyl-2-{methyl[4-(phenylethynyl)benzoyl]amino}propanediamide], in assay [1], the MIC was found to be 1 µg/mL (≈ 2.74 µM). The IC50 in assay [2] (setting [3]) came to 7.2 nM.

For `CNC(=O)C(C(=O)NO)N(C)C(=O)c1ccc(-c2ccc3c(c2)OCC3)cc1` (stereo not shown) [Compound 271, 2-{[4-(2,3-dihydro-1-benzofuran-6-yl)benzoyl](methyl)amino}-N-hydroxy-N′-methylpropanediamide], the MIC in assay [1] was 0.5 µg/mL (≈ 1.3 µM). Further, the IC50 in assay [2] (setting [3]) was 5 nM.

With `CNC(=O)C(C(=O)NO)N(C)C(=O)c1ccc(-c2ccc(OCCO)cc2)cc1` (stereo not shown) [Compound 153, N-hydroxy-2-[{[4′-(2-hydroxyethoxy)biphenyl-4-yl]carbonyl}(methyl)amino]-N′-methylpropanediamide], the MIC in assay [1] was 2 µg/mL (≈ 4.98 µM). Besides, in assay [2] (setting [3]), the IC50 came to 5.7 nM.

Take `CNC(=O)C(C(=O)NO)N(C)C(=O)c1ccc(-c2ccc3c(c2)CCN3C)cc1` (stereo not shown) [Compound 40, N-hydroxy-N′-methyl-2-{methyl[4-(1-methyl-2,3-dihydro-1H-indol-5-yl)benzoyl]amino}propanediamide]: the MIC in assay [1] was 1 µg/mL (≈ 2.52 µM). Also, in assay [2] (setting [3]), the IC50 stood at 4.7 nM.

With `CNC(=O)C(C(=O)NO)N(C)C(=O)c1ccc(-c2ccc(OCCCN3CCOCC3)cc2)cc1.Cc1ccc(S(=O)(=O)O)cc1` (stereo not shown) [Compound 7b, N-hydroxy-N′-methyl-2-[methyl({4′-[3-(morpholin-4-yl)propoxy]biphenyl-4-yl}carbonyl)amino]propanediamide 4-methylbenzenesulfonate], the MIC in assay [1] stood at 2 µg/mL.

Take `CNC(=O)C(C(=O)NO)N(C)C(=O)c1ccc(-c2ccc(OC(F)(F)F)cc2)cc1` (stereo not shown) [Compound 52, N-hydroxy-N′-methyl-2-(methyl {[4′-(trifluoromethoxy)biphenyl-4-yl]carbonyl}amino)propanediamide]: the MIC in assay [1] is 1 µg/mL (≈ 2.35 µM). Besides, the IC50 in assay [2] (setting [3]) amounted to 4.6 nM.

On to `CNC(=O)C(C(=O)NO)N(C)C(=O)c1ccc(-c2ccc3c(c2)OC(OC)O3)cc1` (stereo not shown) [Compound 94, N-hydroxy-2-{[4-(2-methoxy-1,3-benzodioxol-5-yl)benzoyl](methyl)amino}-N′-methylpropanediamide], for which the MIC in assay [1] stood at 2 µg/mL (≈ 4.81 µM). Moreover, in assay [2] (setting [3]), the IC50 turned out to be 5.6 nM.

Turning to `CNC(=O)C(C(=O)NO)N(C)C(=O)c1ccc(-c2ccc(OC)cc2)cc1` (stereo not shown) [Compound 3], the MIC in assay [1] came to 0.5 µg/mL (≈ 1.35 µM). The IC50 in assay [2] (setting [3]) worked out at 3.3 nM.

Turning to `CNC(=O)C(C(=O)NO)N(C)C(=O)c1ccc(-c2ccc(C)cc2)cc1` (stereo not shown) [Compound 5, N-hydroxy-N′-methyl-2-{methyl[(4′-methylbiphenyl-4-yl)carbonyl]amino}propanediamide], in assay [1], the MIC turned out to be 0.25 µg/mL (≈ 0.703 µM). Besides, the IC50 in assay [2] (setting [3]) stood at 3.7 nM.

For `CNC(=O)C(C(=O)NO)N(C)C(=O)c1ccc(-c2ccc(NCCCCCN3CCOCC3)cc2)cc1` (stereo not shown) [Compound 58, N-hydroxy-N′-methyl-2-{methyl[(4′-{[5-(morpholin-4-yl)pentyl]amino}biphenyl-4-yl)carbonyl]amino}propanediamide], the MIC in assay [1] was 4 µg/mL (≈ 7.82 µM). The IC50 in assay [2] (setting [3]) turned out to be 8.3 nM.

Consider `CNC(=O)C(C(=O)NO)N(C)C(=O)c1ccc(-c2ccc3c(c2)CCO3)cc1` (stereo not shown) [Compound 188, 2-{[4-(2,3-dihydro-1-benzofuran-5-yl)benzoyl](methyl)amino}-N-hydroxy-N′-methylpropanediamide], for which, in assay [1], the MIC is 0.5 µg/mL (≈ 1.3 µM). In assay [2] (setting [3]), the IC50 came out at 5 nM.

As for `CNC(=O)C(C(=O)NO)N(C)C(=O)c1ccc(-c2ccc(F)cc2)cc1` (stereo not shown) [Compound 6, 2-{[(4′-fluorobiphenyl-4-yl)carbonyl](methyl)amino}-N-hydroxy-N′-methylpropanediamide], the MIC in assay [1] was determined as 1 µg/mL (≈ 2.78 µM). In assay [2] (setting [3]), the IC50 was 7.1 nM.

As to `CNC(=O)C(C(=O)NO)N(C)C(=O)c1ccc(-c2ccc(COC)cc2)cc1` (stereo not shown) [Compound 4, N-hydroxy-2-[{[4′-(methoxymethyl)biphenyl-4-yl]carbonyl}(methyl)amino]-N′-methylpropanediamide], the MIC in assay [1] was determined as 1 µg/mL (≈ 2.59 µM). Besides, in assay [2] (setting [3]), the IC50 came out at 6.1 nM.

As for `CNC(=O)C(C(=O)NO)N(C)C(=O)c1ccc(-c2ccc(C(F)(F)F)cc2)cc1` (stereo not shown) [Compound 56, N-hydroxy-N′-methyl-2-(methyl {[4′-(trifluoromethyl)biphenyl-4-yl]carbonyl}amino)propanediamide], in assay [1], the MIC worked out at 1 µg/mL (≈ 2.44 µM). Further, the IC50 in assay [2] (setting [3]) is 6.7 nM.

For the molecule `CNC(=O)C(C(=O)NO)N(C)C(=O)c1ccc(-c2ccc3c(c2)OCO3)cc1` (stereo not shown) [Compound 8, 2-{[4-(1,3-benzodioxol-5-yl)benzoyl](methyl)amino}-N-hydroxy-N′-methylpropanediamide], the MIC in assay [1] is 0.5 µg/mL (≈ 1.3 µM). Further, the IC50 in assay [2] (setting [3]) was 5 nM.

Take `CNC(=O)C(C(=O)NO)N(C)C(=O)c1ccc(-c2ccc(OCCCN3CCOCC3)cc2)cc1` (stereo not shown) [Compound 7, N-hydroxy-N′-methyl-2-[methyl({4′-[3-(morpholin-4-yl)propoxy]biphenyl-4-yl}carbonyl)amino]propanediamide]: the MIC in assay [1] amounted to 2 µg/mL (≈ 4.13 µM).

For `CNc1ccc(-c2ccc(C(=O)N(C)C(C(=O)NO)C(=O)NCc3cc(C)on3)cc2)cc1` (stereo not shown) [Compound 77, N-hydroxy-2-(methyl {[4′-(methylamino)biphenyl-4-yl]carbonyl}amino)-N′-[(5-methyl-1,2-oxazol-3-yl)methyl]propanediamide], in assay [1], the minimal inhibitory concentration (MIC) was found to be 4 µg/mL (≈ 8.86 µM). Also, the IC50 in assay [2] (setting [3]) turned out to be 7.5 nM.

Regarding `CNC(=O)C(C(=O)NO)N(C)C(=O)c1ccc(-c2ccc(CF)cc2)cc1` (stereo not shown) [Compound 237, 2-[{[4′-(fluoromethyl)biphenyl-4-yl]carbonyl}(methyl)amino]-N-hydroxy-N′-methylpropanediamide], the MIC in assay [1] was 0.5 µg/mL (≈ 1.34 µM). Also, the IC50 in assay [2] (setting [3]) was found to be 4.5 nM.

On to `CNC(=O)C(C(=O)NO)N(C)C(=O)c1ccc(-c2ccc(NC)cc2)cc1` (stereo not shown) [Compound 2, N-hydroxy-N′-methyl-2-(methyl {[4′-(methylamino)biphenyl-4-yl]carbonyl}amino)propanediamide], for which the MIC in assay [1] is 0.5 µg/mL (≈ 1.35 µM). In assay [2] (setting [3]), the IC50 came out at 7.1 nM.

For `CNC(=O)C(C(=O)NO)N(C)C(=O)c1ccc(-c2ccccc2)cc1` (stereo not shown) [Compound 1, 2-[(Biphenyl-4-ylcarbonyl)(methyl)amino]-N-hydroxy-N′-methylpropanediamide], the MIC in assay [1] is 0.5 µg/mL (≈ 1.46 µM). The IC50 in assay [2] (setting [3]) was 7.7 nM.

In the case of `Cc1cc(CNC(=O)C(C(=O)NO)N(C)C(=O)c2ccc(-c3ccccc3)cc2)no1` (stereo not shown) [Compound 172, 2-[(Biphenyl-4-ylcarbonyl)(methyl)amino]-N-hydroxy-N′-[(5-methyl-1,2-oxazol-3-yl)methyl]propanediamide], the MIC in assay [1] was found to be 2 µg/mL (≈ 4.73 µM). Also, in assay [2] (setting [3]), the IC50 came out at 7.1 nM.

As to `CNC(=O)C(C(=O)NO)N(C)C(=O)c1ccc(-c2nc3ccccc3s2)cc1` (stereo not shown) [Compound 344, 2-[{[4-(1,3-benzothiazol-2-yl)phenyl]carbonyl}(methyl)amino]-N-hydroxy-N′-methylpropanediamide], the IC50 in assay [2] (setting [4]) is 10 to 100 nM.

Take `CCN(C(=O)c1ccc(-c2ccc(NC)cc2)cc1)C(C(=O)NC)C(=O)NO` (stereo not shown) [Compound 235, 2-(ethyl {[4′-(methylamino)biphenyl-4-yl]carbonyl}amino)-N-hydroxy-N′-methylpropanediamide]: the IC50 in assay [2] (setting [4]) was less than 10 nM.

For `CNC(=O)C(C(=O)NO)N(C)C(=O)c1ccc(-c2ccc(NCCOC)c(F)c2)cc1` (stereo not shown) [Compound 66, 2-[({3′-fluoro-4′-[(2-methoxyethyl)amino]biphenyl-4-yl}carbonyl)(methyl)amino]-N-hydroxy-N′-methylpropanediamide], the IC50 in assay [2] (setting [4]) is less than 10 nM.

Turning to `CNC(=O)C(C)(NC(=O)c1ccc(C#Cc2ccc(CN3CCCOCC3)cc2)cc1)C(=O)NO` (stereo not shown) [Compound 380, N-hydroxy-N′,2-dimethyl-2-{[(4-{[4-(1,4-oxazepan-4-ylmethyl)phenyl]ethynyl}phenyl)carbonyl]amino}propanediamide], the IC50 in assay [2] (setting [4]) is 10 to 100 nM.

With `CNC(=O)C(C(=O)NO)N(C)C(=O)c1ccc(C#Cc2ccc(CCN3CCCOCC3)cc2)cc1` (stereo not shown) [Compound 207, N-hydroxy-N′-methyl-2-{methyl[4-({4-[2-(1,4-oxazepan-4-yl)ethyl]phenyl}ethynyl)benzoyl]amino}propanediamide], the IC50 in assay [2] (setting [4]) was less than 10 nM.
